Reference: patent US8940775B2, “Use of derivatives of pentaphyrine as antimicrobial and disinfectant agents” (Universita' Degli Studi di Udine, priority 2010, dated 2015)
Several values for one entry are separate records, joined by “and”; a condition that tells them apart may be missing. Equal entries are not always repeated.

Assays:
Assay type in all cases: cell-based
S. aureus = assay: Intrinsic toxicity of PCCox in the dark on bacterial cultures; settings: no light activation
Method: FIG. 3. Toxicity test of the pentaphyrine PCCox evaluating the vitality of a bacterial culture of S. aureus incubated for 60 minutes in the dark with various concentrations of 20-(4-carboxyphenyl)-2,13-dimethyl-3,12-diethyl-[22] pentaphyrine (PCCox) (0.05 μM, 0.5 μM and 5 μM).
The photo-oxidation tests were performed on a culture volume equal to 1 mL, using a plate with 48 wells with diameter of 1 cm and capacity of 1.5 mL. The multi-well plate is positioned above a magnetic stirrer and under the light source. A volume of a 330 μM solution of PCCox in DMSO is added to the bacterial suspension in order to obtain various concentrations of the photosensitizer (0.05 μM, 0.5 μM, 5 μM and 20 μM). […] The intrinsic toxicity, i.e. the toxicity not induced by the light, of the PCCox was evaluated on bacterial cultures of S. aureus and E. hirae incubated for 60 minutes in the dark with various concentrations of PCCox: in FIG. 3 are reported the results obtained on S. aureus; similar results were obtained with E. hirae. […]
At each time interval, a volume of bacterial suspension of 100 μL is taken and is diluted in PBS 0.01 M using an optimum dilution factor for the bacterial culture. […] These samples are analysed at the end of the treatment. Each test is carried out at least in triplicate, and the survival data in terms of CFU/mL are expressed as the mean and standard deviation. […]

E. hirae ATCC 10541 = assay: Photo-oxidation test, antibacterial activity on E. hirae; settings: PCCox 20 μM; 120 min of illumination with lamp B at 50 W/m2; preliminary tests
Method: The bacterial strains used in the photo-oxidation tests are S. aureus ATCC 6538 and E. hirae ATCC 10541. The bacterial culture in exponential phase is obtained by inoculation in 10 mL of Nutrient Broth No. 2 and incubation at 37° C. Next the culture is centrifuged for 15 minutes at 3200 rpm and the pellet is resuspended in PBS 0.01 M in order to obtain a bacterial concentration equal to about 10^8 CFU/mL (Abs600≈0.1). This suspension was used for the photo-oxidation tests in the conditions described hereunder. […]
(§1) The luminous intensity supplied by the light sources was evaluated by radiometer (DeltaOhm HD 2302.0 equipped with LP 471 RAD sensor).
(§2) The photo-oxidation tests were performed on a culture volume equal to 1 mL, using a plate with 48 wells with diameter of 1 cm and capacity of 1.5 mL. […] The intrinsic toxicity, i.e. the toxicity not induced by the light, of the PCCox was evaluated on bacterial cultures of S. aureus and E. hirae incubated for 60 minutes in the dark with various concentrations of PCCox: in FIG. 3 are reported the results obtained on S. aureus; similar results were obtained with E. hirae. […]
(§3) At each time interval, a volume of bacterial suspension of 100 μL is taken and is diluted in PBS 0.01 M using an optimum dilution factor for the bacterial culture. […] These samples are analysed at the end of the treatment. […]

[1] = tested on: Gram-positive bacterial population of the genus Enterococcus; assay: Photo-oxidation test on primary effluent of a purification plant; settings: PCCox 20 μM
Method: FIG. 12. Photo-oxidation test for evaluating the antibacterial activity of the pentaphyrine PCCox (concentration of solution 20 μM) on a real sample, in this case primary effluent of a purification plant for treating municipal waste. The activity of PCCox was evaluated with respect to the Gram-positive bacterial population of the genus Enterococcus, which is present in the sample treated at a concentration equal to 10^4 CFU/mL. The test was carried out with a source of blue light (473 nm) at a luminous intensity equal to 50 W/m^2. The percentage survival of enterococci following treatment with PCCox, in the experimental conditions, is equal to 31%. […]
as §2, §3

S. aureus ATCC 6538 = assay: Photo-oxidation test, antibacterial activity on S. aureus; settings: for Percentage bacterial load die-off: initial 10^8 CFU/ml S. aureus, 100 W lamp, 40 W/m^2
Method: The bacterial strains used in the photo-oxidation tests are S. aureus ATCC 6538 and E. hirae ATCC 10541. The bacterial culture in exponential phase is obtained by inoculation in 10 mL of Nutrient Broth No. 2 and incubation at 37° C. Next the culture is centrifuged for 15 minutes at 3200 rpm and the pellet is resuspended in PBS 0.01 M in order to obtain a bacterial concentration equal to about 10^8 CFU/mL (Abs600≈0.1). This suspension was used for the photo-oxidation tests in the conditions described hereunder.
The photo-oxidative treatment was carried out using various light sources: • Lamp A: 100 W incandescent lamp, able to irradiate the bacterial suspension with a fluence rate equal to 40 W/m^2. The […] component of the luminous radiation is removed by filtering the light through a layer of water equal to 0.5 cm; • Lamp B: blue LED lamp, with maximum emission at 473 nm, connected to a power supply that controls its fluence rate between 24 and 50 W/m^2; • Lamp C: lamp with blue LED, with maximum emission at 473 nm, with a fluence rate equal to 10 W/m^2; • Lamp D: lamp with red LED, with maximum emission at 635 nm, with a fluence rate equal to 10 W/m^2.
as §1
The photo-oxidation tests were performed on a culture volume equal to 1 mL, using a plate with 48 wells with diameter of 1 cm and capacity of 1.5 mL. The multi-well plate is positioned above a magnetic stirrer and under the light source. A volume of a 330 μM solution of PCCox in DMSO is added to the bacterial suspension in order to obtain various concentrations of the photosensitizer (0.05 μM, 0.5 μM, 5 μM and 20 μM). The solution is stirred by small magnetic anchors throughout the treatment. The intrinsic toxicity, i.e. the toxicity not induced by the light, of the PCCox was evaluated on bacterial cultures of S. aureus and E. hirae incubated for 60 minutes in the dark with various concentrations of PCCox: in FIG. 3 are reported the results obtained on S. aureus; similar results were obtained with E. hirae. The percentage of DMSO present in the culture treated never exceeds 6%. […] In FIG. 4 are reported the results obtained with E. hirae; similar results were obtained with S. aureus.
The duration of the treatment is different for S. aureus (15, 30 and 60 minutes) and E. hirae (60 and 120 minutes).
The influence of a step of incubation of the bacterial culture in the dark in the presence of the molecule was evaluated before the irradiation step. In FIG. 5 are reported the results obtained with S. aureus.
At each time interval, a volume of bacterial suspension of 100 μL is taken and is diluted in PBS 0.01 M using an optimum dilution factor for the bacterial culture. From each dilution, 100 μL of bacterial suspension is taken (1000 μL is taken from the samples of primary effluent), seeded in MSA medium for S. aureus and Mf-Enterococcus Selective Agar for E. hirae on Petri dishes and incubated in the dark at 37° C. for 18-24 hours. The same procedure is carried out for the control samples, used for testing the activity of PCCox in the dark and the vitality of the bacterial suspension, without photosensitizer, exposed to the light or incubated in the dark. These samples are analysed at the end of the treatment. Each test is carried out at least in triplicate, and the survival data in terms of CFU/mL are expressed as the mean and standard deviation. The percentage survival is calculated respect to the concentration of bacteria measured on the control sample exposed to the light, analysed at the end of the test.

CCC1=C(C)c2cc3nc(c(-c4ccc(C(=O)O)cc4)c4ccc(cc5nc(cc6ccc(cc1n2)[nH]6)C(CC)=C5C)[nH]4)C=C3 [PCCox, 20-(4-carboxyphenyl)-2,13-dimethyl-3,12-diethyl-[22] pentaphyrine]
bactericidal activity in the dark (S. aureus): does not have bactericidal activity in the dark | die-off (E. hirae ATCC 10541): 4 log | percentage survival of enterococci ([1]; primary effluent, 10^4 CFU/mL, blue light 473 nm, 50 W/m^2): 31% | die-off ([1]; primary wastewater, in terms of E. hirae, blue light 50 W/m^2): up to 70% | Percentage bacterial load die-off (S. aureus ATCC 6538; PCCox 0.05 μM, 15 min): 99.77% | Percentage bacterial load die-off (S. aureus ATCC 6538; PCCox 0.05 μM, 30 min): 99.9% and 99.89% | bacterial load die-off (S. aureus ATCC 6538; PCCox 0.05 μM, 30 min of treatment, lamp A): 3 log | Percentage bacterial load die-off (S. aureus ATCC 6538; PCCox 0.05 μM, 60 min): 99.97% | Percentage bacterial load die-off (S. aureus ATCC 6538; PCCox 0.5 μM, 15 min): 100% | Percentage bacterial load die-off (S. aureus ATCC 6538; PCCox 0.5 μM, 30 min): 99.99% | Percentage bacterial load die-off (S. aureus ATCC 6538; PCCox 0.5 μM, 60 min): 100% | Percentage bacterial load die-off (S. aureus ATCC 6538; PCCox 5 μM, 15 min): 99.9988% | Percentage bacterial load die-off (S. aureus ATCC 6538; PCCox 5 μM, 30 min): 100% | Percentage bacterial load die-off (S. aureus ATCC 6538; PCCox 5 μM, 60 min): 100% | die-off (S. aureus ATCC 6538; PCCox 5 μM, 60 min with lamp A (100 W, 40 W/m^2), initial load 10^11-10^13 CFU/ml): 10 log | die-off (S. aureus ATCC 6538; PCCox 5 μM, blue LED, maximum emission 473 nm, fluence rate between 24 and 50 W/m^2): 10 log | bactericidal effect (S. aureus ATCC 6538; PCCox 5 μM, lamp C blue LED at 10 W/m^2, 60 min of illumination, pre-incubation 1 h in the dark): 3 log | influence of incubation time on bactericidal efficiency (S. aureus ATCC 6538; PCCox 5 μM, with or without pre-incubation in the dark for 1 h, blue light 24 W/m^2): not influenced in any way by the incubation time | initial bacterial load destroyed (S. aureus ATCC 6538; PCCox 5 μM, within 15 min of exposure to the light, initial load 10^8-10^13 CFU/ml): 99.999% | bactericidal effect (phototoxic efficacy) (S. aureus ATCC 6538; white light (lamp A, 40 W/m^2), after 15 min of irradiation): 5 log
